Experimental data as given in PubChem BioAssay AID330 (DTP/NCI, 2004).
Several values for one entry are separate records, joined by “and”; a condition that tells them apart may be missing. Equal values may be shown once. Toxic doses and inconclusive results are not listed.

System: P388 leukemia ip, CD2F1 mice, survival T/C
Experiment: NCI In Vivo Anticancer Drug Screen. Data for tumor model P388 Leukemia (intraperitoneal) in CD2F1 (CDF1) mice
Conditions: endpoint: median survival time, higher = longer survival
Method in brief: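 Mice carrying the transplanted tumor received test compound or vehicle. Survival was recorded in each group, and the value is the treated-group measurement divided by that of the vehicle-treated control group.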

[1] = dose: 50.0 mg/kg/injection, schedule: Q01DX005 (ip), vehicle: Klucel (hydroxypropylcellulose) (HPC)
[2] = dose: 100.0 mg/kg/injection, schedule: Q01DX005 (ip), vehicle: Klucel (hydroxypropylcellulose) (HPC)
[3] = dose: 200.0 mg/kg/injection, schedule: Q01DX005 (ip), vehicle: Klucel (hydroxypropylcellulose) (HPC)
[4] = dose: 50.0 mg/kg/injection, schedule: Q01DX009 (ip), vehicle: saline with Tween-80
[5] = dose: 100.0 mg/kg/injection, schedule: Q01DX009 (ip), vehicle: saline with Tween-80
[6] = dose: 50.0 mg/kg/injection, schedule: Q01DX005 (ip), vehicle: saline
[7] = dose: 100.0 mg/kg/injection, schedule: Q01DX005 (ip), vehicle: saline
[8] = dose: 200.0 mg/kg/injection, schedule: Q01DX005 (ip), vehicle: saline
[9] = dose: 50.0 mg/kg/injection, schedule: Q01DX005 (ip), vehicle: saline with Tween-80
[10] = dose: 100.0 mg/kg/injection, schedule: Q01DX005 (ip), vehicle: saline with Tween-80
[11] = dose: 200.0 mg/kg/injection, schedule: Q01DX005 (ip), vehicle: saline with Tween-80
[12] = dose: 12.5 mg/kg/injection, schedule: Q01DX005 (ip), vehicle: Klucel (hydroxypropylcellulose) (HPC)
[13] = dose: 25.0 mg/kg/injection, schedule: Q01DX005 (ip), vehicle: Klucel (hydroxypropylcellulose) (HPC)
[14] = dose: 60.0 mg/kg/injection, schedule: Q01DX005 (ip), vehicle: saline with Tween-80
[15] = dose: 120.0 mg/kg/injection, schedule: Q01DX005 (ip), vehicle: saline with Tween-80
[16] = dose: 240.0 mg/kg/injection, schedule: Q01DX005 (ip), vehicle: saline with Tween-80
[17] = dose: 50.0 mg/kg/injection, schedule: Q01DX009 (ip), vehicle: saline

O=C1SC/C(=N\N=C2/CSC(=O)N2Cc2ccccc2)N1Cc1ccccc1
T/C [1]: 87 % of control | T/C [2]: 93 % of control | T/C [3]: 88 % of control

CC(=O)ON=C1C=CC(=C(C#N)c2ccccc2)C=C1
T/C [4]: 104 % of control | T/C [5]: 122 % of control

CN(C)/C=N\c1ncnc2c1ncn2C1OC(CO)C(O)C1O (stereo not given)
T/C (dose: 6.25 mg/kg/injection, schedule: Q01DX009 (ip), vehicle: saline with Tween-80): 104 % of control | T/C (dose: 12.5 mg/kg/injection, schedule: Q01DX009 (ip), vehicle: saline with Tween-80): 98 % of control | T/C (dose: 25.0 mg/kg/injection, schedule: Q01DX009 (ip), vehicle: saline with Tween-80): 102 % of control | T/C [4]: 99 % of control | T/C [5]: 95 % of control

COc1c(NC(C)=O)c2ccccc2c2ccccc12
T/C [1]: 106 % of control | T/C [2]: 109 % of control | T/C [3]: 97 % of control

C=C(C)CCN1C(=O)NC(C)(C)C1O (stereo not given)
T/C [6]: 100 % of control | T/C [7]: 107 % of control | T/C [8]: 101 % of control

Brc1ccc2c(c1)-c1ccccc1C1=NCCN12
T/C (dose: 5.0 mg/kg/injection, schedule: Q01DX009 (ip), vehicle: saline): 100 % of control | T/C (dose: 5.0 mg/kg/injection, schedule: Q04DX003 (ip), vehicle: saline): 100 % of control | T/C (dose: 10.0 mg/kg/injection, schedule: Q01DX009 (ip), vehicle: saline): 100 % of control | T/C (dose: 10.0 mg/kg/injection, schedule: Q04DX003 (ip), vehicle: saline): 100 % of control | T/C (dose: 20.0 mg/kg/injection, schedule: Q01DX009 (ip), vehicle: saline): 95 % of control | T/C (dose: 20.0 mg/kg/injection, schedule: Q04DX003 (ip), vehicle: saline): 100 % of control and 104 % of control

COc1cc(NS(C)(=O)=O)ccc1Nc1c2ccccc2nc2cc(C(F)(F)F)c(N)cc12
T/C (dose: 13.0 mg/kg/injection, schedule: Q04DX003 (ip), vehicle: distilled water + Tween-80): 162 % of control | T/C (dose: 21.6 mg/kg/injection, schedule: Q04DX003 (ip), vehicle: distilled water + Tween-80): 180 % of control | T/C (dose: 25.0 mg/kg/injection, schedule: Q01DX009 (ip), vehicle: Klucel (hydroxypropylcellulose) (HPC)): 172 % of control | T/C (dose: 36.0 mg/kg/injection, schedule: Q04DX003 (ip), vehicle: distilled water + Tween-80): 190 % of control | T/C (dose: 50.0 mg/kg/injection, schedule: Q01DX009 (ip), vehicle: Klucel (hydroxypropylcellulose) (HPC)): 152 % of control and 182 % of control | T/C (dose: 60.0 mg/kg/injection, schedule: Q04DX003 (ip), vehicle: distilled water + Tween-80): 228 % of control | T/C (dose: 100.0 mg/kg/injection, schedule: Q01DX009 (ip), vehicle: Klucel (hydroxypropylcellulose) (HPC)): 123 % of control

NC(=N\N=C\C(O)C(O)C(O)C(O)C(=O)O)/C(N)=N/N=C/C(O)C(O)C(O)C(O)C(=O)O (stereo not given)
T/C [6]: 101 % of control | T/C [7]: 104 % of control | T/C [8]: 101 % of control

CC(NC(=O)C(Cc1ccc(OC(=O)OCc2ccccc2)cc1)NC(=O)OCc1ccccc1)C(=O)OCc1ccccc1 (stereo not given)
T/C [9]: 96 % of control | T/C [10]: 92 % of control

O=C(Nc1ccc(Cl)cc1)N1c2ccccc2SC1c1ccco1 (stereo not given)
T/C [9]: 89 % of control | T/C [10]: 88 % of control | T/C [11]: 87 % of control

Cc1cc(O)c(C(=O)O)c2c1CCC(C1(C)CO1)C2 (stereo not given)
T/C (dose: 1.56 mg/kg/injection, schedule: Q01DX005 (ip), vehicle: Klucel (hydroxypropylcellulose) (HPC)): 100 % of control | T/C (dose: 3.12 mg/kg/injection, schedule: Q01DX005 (ip), vehicle: Klucel (hydroxypropylcellulose) (HPC)): 101 % of control | T/C (dose: 6.25 mg/kg/injection, schedule: Q01DX005 (ip), vehicle: Klucel (hydroxypropylcellulose) (HPC)): 100 % of control | T/C [12]: 105 % of control | T/C [13]: 107 % of control

O=C(O)C12CCC(c3ccccc31)c1ccccc12
T/C [14]: 101 % of control | T/C [15]: 107 % of control | T/C [16]: 100 % of control

O=C(O)c1c(C(=O)O)c2cccn2c2c1cnn2-c1ccccc1
T/C [14]: 102 % of control | T/C [15]: 100 % of control | T/C [16]: 100 % of control

CC(C)(C)OC1CCC2=CC(=O)CCC21C (stereo not given)
T/C (dose: 100.0 mg/kg/injection, schedule: Q04DX002 (ip), vehicle: other): 119 % of control

O=C1CN(C2CCCCC2Br)C(=O)CN1C1CCCCC1Br (stereo not given)
T/C (dose: 60.0 mg/kg/injection, schedule: Q01DX005 (ip), vehicle: Klucel (hydroxypropylcellulose) (HPC)): 97 % of control | T/C (dose: 120.0 mg/kg/injection, schedule: Q01DX005 (ip), vehicle: Klucel (hydroxypropylcellulose) (HPC)): 94 % of control | T/C (dose: 240.0 mg/kg/injection, schedule: Q01DX005 (ip), vehicle: Klucel (hydroxypropylcellulose) (HPC)): 96 % of control

CC(=O)CC(=O)Nc1ccccc1
T/C (dose: 12.5 mg/kg/injection, schedule: Q01DX009 (ip), vehicle: saline): 105 % of control | T/C (dose: 25.0 mg/kg/injection, schedule: Q01DX009 (ip), vehicle: saline): 94 % of control | T/C [17]: 88 % of control

O=c1[nH]c(=S)[nH]c2nccnc12
T/C (dose: 100.0 mg/kg/injection, schedule: Q04DX003 (ip), vehicle: Klucel (hydroxypropylcellulose) (HPC)): 105 % of control | T/C (dose: 200.0 mg/kg/injection, schedule: Q04DX003 (ip), vehicle: Klucel (hydroxypropylcellulose) (HPC)): 118 % of control | T/C (dose: 400.0 mg/kg/injection, schedule: Q04DX003 (ip), vehicle: Klucel (hydroxypropylcellulose) (HPC)): 112 % of control

CN(C)C1=CC(=O)c2ccccc2C12CO2 (stereo not given)
T/C (dose: 100.0 mg/kg/injection, schedule: Q01DX001 (ip), vehicle: saline with Tween-80): 106 % of control | T/C (dose: 200.0 mg/kg/injection, schedule: Q01DX001 (ip), vehicle: saline with Tween-80): 100 % of control

CSc1nc(C)c(C(=O)CCN2CCN(c3ccccn3)CC2)s1
T/C (dose: 60.0 mg/kg/injection, schedule: Q01DX005 (ip), vehicle: saline): 104 % of control | T/C (dose: 120.0 mg/kg/injection, schedule: Q01DX005 (ip), vehicle: saline): 113 % of control

CC(NCNc1ccc2ccccc2c1)C(=O)O (stereo not given)
T/C [4]: 104 % of control | T/C [5]: 106 % of control | T/C (dose: 200.0 mg/kg/injection, schedule: Q01DX009 (ip), vehicle: saline with Tween-80): 98 % of control

N#CC1=C(C#N)CC2C(C1)OC1CC(C#N)=C(C#N)CC12 (stereo not given)
T/C [17]: 100 % of control | T/C (dose: 100.0 mg/kg/injection, schedule: Q01DX009 (ip), vehicle: saline): 101 % of control | T/C (dose: 200.0 mg/kg/injection, schedule: Q01DX009 (ip), vehicle: saline): 100 % of control

C[C@]12C=CC(=O)C=C1CC[C@@H]1[C@@H]2[C@@H](O)C[C@@]2(C)[C@H]1CC[C@]2(O)C(=O)CF
T/C (dose: 6.25 mg/kg/injection, schedule: Q01DX009 (ip), vehicle: suspension in saline): 100 % of control | T/C (dose: 12.5 mg/kg/injection, schedule: Q01DX009 (ip), vehicle: suspension in saline): 93 % of control | T/C (dose: 25.0 mg/kg/injection, schedule: Q01DX009 (ip), vehicle: suspension in saline): 102 % of control | T/C (dose: 50.0 mg/kg/injection, schedule: Q01DX009 (ip), vehicle: suspension in saline): 96 % of control

O=c1c(N=Nc2ccccc2)c(O)n(-c2ccc(Cl)cc2)c(=S)n1-c1ccc(Br)cc1
T/C (dose: 100.0 mg/kg/injection, schedule: Q04DX002 (ip), vehicle: saline with Tween-80): 102 % of control | T/C (dose: 200.0 mg/kg/injection, schedule: Q04DX002 (ip), vehicle: saline with Tween-80): 103 % of control | T/C (dose: 400.0 mg/kg/injection, schedule: Q04DX002 (ip), vehicle: saline with Tween-80): 94 % of control

C=C1C2CCC3C4(C)CCCC(C)(C(=O)O)C4CCC3(C2)C1OC(=O)/C(C)=C/C (stereo not given)
T/C [12]: 102 % of control | T/C [13]: 96 % of control | T/C [1]: 90 % of control | T/C [9]: 99 % of control | T/C [2]: 87 % of control | T/C [10]: 95 % of control | T/C [11]: 95 % of control | T/C (dose: 400.0 mg/kg/injection, schedule: Q01DX005 (ip), vehicle: saline with Tween-80): 95 % of control

Cc1nc(Nc2ccccc2)c(C#N)c(=O)[nH]1
T/C [14]: 86 % of control | T/C [15]: 86 % of control | T/C [16]: 86 % of control

Cc1ccc(C2OC2(C(=O)C=[N+]=[N-])c2ccccc2)cc1 (stereo not given)
T/C (dose: 25.0 mg/kg/injection, schedule: Q01DX005 (ip), vehicle: saline with Tween-80): 89 % of control | T/C [9]: 92 % of control | T/C [10]: 86 % of control | T/C [11]: 91 % of control
